# Patent US5358936A, “Anionic furanose derivatives, methods of making and using the same” (Gordon; Paul, priority 1991, dated 1994)
# “And” between values parts separate entries of the source, which are not always exact repeats. Equal entries are not always repeated. Structures can show the parent of a compound that is named as a salt.
# Tests used:
# [1] = test system: stomach ulcers; experiment: Gastric ulcers in rats with corona virus infection treated with indomethacin (Example 26); format: in vivo, rat
# Excerpt: Corona virus is a non-lethal upper respiratory viral pathogen that not infrequently infects rat colonies. It is a type of rodent coryza or catarrh, the equivalent of a disease that falls somewhere between human influenza and a severe common cold. The animals of this study suffered from this condition, a circumstance which was evident by observation, and which was confirmed by virological diagnosis at the Biological Resources Laboratory of the University of Illinois at Chicago. Since stress is a common component of peptic ulcer development in both animals and man, it was concluded that this feature of the status of these experimental animals rendered them appropriate for an ulcer study.
# In this study, animals were not food deprived and were divided into treatment groups such that 15 rats received 30 mg/kg indomethacin alone (in water by oral gavage), 14 rats received indomethacin plus an injection of 25 mg/kg cimetidine subcutaneously, and 7 rats received indomethacin plus subcutaneous injection of 17.5 mg/kg of Compound III.
# All animals were sacrificed by ether euthanasia 24 hours later and their stomachs evaluated for ulcer pathology. In this study ulcers were not hemorrhagic. Results are shown below as the average number of stomach ulcers per stomach.
# [2] = test system: foot pad; experiment: Inflammation provoked by carrageenan injection (Example 25); format: in vivo, mice
# [3] = Acute toxicity in the mouse (Example 29 A); conditions: in vivo
# Excerpt: Acute intraperitoneal and oral toxicity of Compound III was studied in the mouse. Ten animals per dose were employed.
# [4] = test system: rat stomachs; experiment: Gastric pathology following inflammatory stress and indomethacin, food-deprived rats (Example 21); format: in vivo
# Procedure: Stress was induced by the following procedure. On day one, under ether anesthesia, 18 male Sprague Dawley rats were injected with a suspension of Zymosan A (1 mg/ml in normal saline; Sigma Chemical Co.) in each hind paw. Swelling developed and persisted. This treatment generated activated blood complement locally (including the C5a moiety), which then spread by the bloodstream throughout the animal.
# Twenty-four hours later all rat paws were reinjected, this time with 0.1 ml of proinflammatory zymosan-activated rat serum containing additional amounts of inflammatory complement fragment C5a (as in Example 23, hereinafter). Five hours later 30 mg/kg indomethacin in an aqueous suspension was given to nine such rats by oral garage. These rats also received a subcutaneous injection of 0.1 ml normal saline. Nine other such rats were given indomethacin as above, and Compound III (50 mg/kg in normal saline subcutaneously). Four additional rats, not stressed (normal) were given water by garage as a placebo and saline subcutaneously. All rats were fed ad libitum on standard diet.
# In contrast to the study of Example 20, above, in this study animals were food deprived for 24 hours before and also during the 24 hours following drug treatments. All animals were subjected to the inflammatory stress as described in Example 20. Eight such rats received 30 mg/kg indomethacin, and eight rats received indomethacin and Compound III (subcut., 50 mg/kg). Four rats, not stressed, were given placebo by garage.
# All animals were sacrificed by ether euthanasia 24 hours later, and their stomachs evaluated for ulcer-related pathology.
# In the stressed animals given indomethacin alone, pathology was much more severe than in Example 20. For scoring, therefore, the frequency of ulcers per rat stomach was quantified, and whether they were or were not bleeding.
# [5] = test system: peritoneal neutrophils; experiment: In vitro neutrophil chemotaxis toward zymosan-activated rat serum (Example 24); format: cell-based, mouse; conditions: for Percent Inhibition of chemotaxis: tripotassium salt
# Procedure: In vitro neutrophil chemotaxis studies were carried out by standard methods, as follows:
# Mice were injected with complete Freund's adjuvant (CFA) and peritoneal cells, principally neutrophjls (>90 percent), were reproved from the mice 24 hours thereafter. Blind-well chemotactic chambers (Nucleopore Corp., Pleasanton, Calif.) were utilized.
# Medium (RPMI 1640 plus 10 percent fetal calf serum) or medium plus 20 percent zymosan-activated rat serum (ZAS) was added to the lower compartment of each chamber. A nucleopore filter (8 μm pore size) was placed between compartments and 1×10^5 peritoneal neutrophils (above) suspended in medium were placed in the upper compartment. Chambers were incubated for six hours, after which time the filters were removed and stained with Giemsa stain. The number of cells on the lower surface of the filter was counted under a microscope. Treatment groups were assayed in duplicate.
# The studies were carried out more specifically as follows:
# Zymosan (Sigma Chemical Co., St. Louis, Mo.) was mixed with rat serum for one hour at 37° C. at 1 milligram (mg)/ml. The resulting chemoattractant composition was filtered, aliquotted and stored frozen at -70° C. prior to use.
# The above chemoattractant composition was used as a 20 percent v/v solution in medium.
# The chemotaxis chambers were arranged as follows:
# The chambers were incubated at 37° C. for six hours, after which the chambers were dismantled, and the filters removed and treated as follows:
# a) The filters were immersed in Giemsa stain diluted 1:50 for 30-45 minutes.
# b) The stained filters were rinsed gently in distilled water for 3-5 minutes.
# c) The stained, rinsed filters were air dried without blotting.
# Several compounds described herein and control compounds ("drug", above) were examined at various concentrations, in duplicate. The molar concentration of a drug that inhibited the observed chemotaxis by 50 percent, defined as the ID50 value, was determined as shown below.
# [6] = test system: lung gross pathology; experiment: Generalized Schwartzmann Reaction (Example 28 A); format: in vivo, rabbit; conditions: P < 0.01
# Procedure: The Generalized Schwartzmann Reaction (GSR) is a pathology in which two intravenous injections of non-lethal amounts of bacterial endotoxin, when separated by 8 to 36 hours, promote thrombotic and tissue-destructive processes in the lung, producing disseminated pulmonary thrombosis and necrosis in otherwise untreated rabbits.
# A. In this study, eight six-week old salmonella-free male rabbits each weighing about 1.5 kg were injected IV with saline vehicle and eight similar rabbits were injected IV with 50 mg/kg of Compound III in the same vehicle. One hour later, all of the animals were injected IV with 100 μg of E. coli lipopolysaccharide (LPS; Sigma Chemical Co.) on day one and with the same amount of LPS on day two, twenty hours later. Animals were evaluated for clinical signs at 24 and 48 hours, and were sacrificed for organ evaluation 48 hours after the second endotoxin injection.
# In assessing gross pathology, separate scores were developed in four categories and these were then summed and added, in one instance, to a score for clinical signs.
# Gross Pathology Categories
# (1) Surface redness, diffuse or mottled (reflecting hyperemia, hemostasis).+2 to +4.
# (2) Discrete focal surface lesions (reflecting thrombosis without disruption of gross pulmonary architecture).
smiles,measurement,setting,value
"CC1(C)O[C@H]2O[C@H]([C@@H](COS(=O)(=O)O)OS(=O)(=O)O)[C@H](OS(=O)(=O)O)[C@H]2O1 [Compound III, 1,2-O-(2-Propylidene)-3,5,6-tri-O-sulfo-α-D-glucofuranose, tripotassium salt]","ulcer reduction compared with cimetidine, in words",[1]; 17.5 mg/kg Compound III vs 25 mg/kg cimetidine,greater using Compound III than cimetidine
same,Percent Inhibition of ulcer frequency,"[1]; indomethacin 30 mg/kg oral, cimetidine 25 mg/kg s.c. or Compound III 17.5 mg/kg s.c.",66%
same,"Ulcer Frequency per stomach, Mn ± SE","[1]; indomethacin 30 mg/kg oral, cimetidine 25 mg/kg s.c. or Compound III 17.5 mg/kg s.c. where given, P<0.02",0.86 ± 0.46 Per Stomach
same,reduction in swelling,"[2]; subcutaneous, ibuprofen 50 mg/kg, Compound III 30 mg/kg, not significant",26%
same,Swelling Change,"[2]; two hours, SOD 100 units IV, Compound III 50 mg/kg IV + 50 mg/kg IP",-74%
same,Foot-Pad Swelling,"[2]; two hours, SOD 100 units IV, Compound III 50 mg/kg IV + 50 mg/kg IP, control 3.8 ± 0.67",0.82 ± 0.46 0.1 mm
same,LD50,"[3]; ip, read-out: LD50, intraperitoneal",2800 mg/kg
same,NOAEL,[3]; iv,3000 mg/kg
same,oral dose producing death,[3]; po,> 4500 mg/kg
same,bleeding ulcers in group,[4]; eight rats,None were bleeding
same,"Bleeding Ulcer Frequency, Mn ± SE","[4]; indomethacin 30 mg/kg, Compound III 50 mg/kg subcut. where given, 24 hours, P<0.001 vs indomethacin alone",0.00 Per Rat
same,"Total Ulcer Frequency, n ± SE","[4]; indomethacin 30 mg/kg, Compound III 50 mg/kg subcut. where given, 24 hours, P<0.01 vs indomethacin alone",0.63 ± 0.42 Per Rat
same,ulcers per affected rat,"[4]; indomethacin: all eight rats, indomethacin + Compound III: only two rats",two and three
same,times as potent as ibuprofen and prednisone in chemotaxis inhibition,[5],100-1000 times
same,IC50,"[5]; Mus musculus, Neutrophil, 6 h, 20 percent zymosan-activated rat serum, six hours, 37° C., read-out: ID50 (molar concentration that inhibited chemotaxis by 50 percent)",200 nM
same,inhibition at 0.01 µg/mL,"[5]; Mus musculus, Neutrophil, dose 0.01 μg/ml, read-out: Percent Inhibition of chemotaxis",1.5%
same,inhibition at 100 µg/mL,"[5]; Mus musculus, Neutrophil, dose 100.0 μg/ml, read-out: Percent Inhibition of chemotaxis",68%
same,inhibition at 200 µg/mL,"[5]; Mus musculus, Neutrophil, dose 200.0 μg/ml, read-out: Percent Inhibition of chemotaxis",60%
same,Percent Inhibition of chemotaxis,[5]; dose 1.0 μg/ml,69.0% and 65.0% and 90.0% and 88.5% and 77.0% and 63.5% and 70.0%
same,Percent Inhibition of chemotaxis,[5]; dose 10.0 μg/ml,87.0% and 76.0% and 92.5% and 97.5% and 74.5%
same,Percent Inhibition of chemotaxis,[5]; dose 100.0 μg/ml,80.5%
same,"relative activity in inhibiting neutrophil chemotaxis, in words",[5]; in vitro,more active than any of the other assayed compounds
same,Mean Pathology score,"[6]; 50 mg/kg IV one hour before LPS, untreated 8.00 ± 1.02",2.25 ± 1.10
same,Drug Effect on mean pathology score,[6]; 50 mg/kg IV,-72%
